# What was measured:
# Experiment in all cases: Standard microdilution susceptibility test, clinical isolates
# Assay type in all cases: cell-based
# [1] = system: Coagulase-negative Staphylococus sp., methicillin resistant; settings: 10 clinical isolates; for MIC50: read-out: MIC 50%; for MIC90: read-out: MIC 90%
# [2] = system: Enterococcus sp., decreased vancomycin susceptibility; settings: 5 clinical isolates
# [3] = system: Streptococcus pneumoniae, penicillin susceptible; settings: for MIC50 / MIC90: Streptococcus pneumoniae; for MIC50: read-out: MIC 50%; for MIC90: read-out: MIC 90%; for MIC: single isolate
# [4] = system: Streptococcus viridans sp.; settings: 20 clinical isolates; for MIC50 / MIC90: Streptococcus viridans; for MIC50: read-out: MIC 50%; for MIC90: read-out: MIC 90%
# [5] = system: Enterococcus sp., vancomycin susceptible; settings: 20 clinical isolates; for MIC50 / MIC90: Enterococcus; for MIC50: read-out: MIC 50%; for MIC90: read-out: MIC 90%
# [6] = system: Staphylococcus aureus, methicillin susceptible; settings: 10 clinical isolates; for MIC50 / MIC90: Staphylococcus aureus; for MIC50: read-out: MIC 50%; for MIC90: read-out: MIC 90%
# [7] = system: Streptococcus pneumoniae, penicillin resistant; settings: for MIC50 / MIC90: Streptococcus pneumoniae; for MIC50: read-out: MIC 50%; for MIC90: read-out: MIC 90%
# [8] = system: Coagulase-negative Staphylococus sp., methicillin susceptible; settings: 10 clinical isolates; for MIC50: read-out: MIC 50%; for MIC90: read-out: MIC 90%
# [9] = system: Staphylococcus aureus, methicillin resistant; settings: 10 clinical isolates; for MIC50 / MIC90: Staphylococcus aureus; for MIC50: read-out: MIC 50%; for MIC90: read-out: MIC 90%
Compound,Ratio of Sensitive/Total [1],MIC50 [1],MIC90 [1],MIC Range [2],Ratio of Sensitive/Total [2],MIC Range ([3]; 10 clinical isolates),Ratio of Sensitive/Total ([3]; 10 clinical isolates),MIC50 ([3]; 10 clinical isolates),MIC90 ([3]; 10 clinical isolates),Ratio of Sensitive/Total [4],MIC50 [4],MIC90 [4],Ratio of Sensitive/Total [5],MIC50 [5],MIC90 [5],MIC Range [6],Ratio of Sensitive/Total [6],Ratio of Sensitive/Total ([7]; 10 clinical isolates),Ratio of Sensitive/Total [8],Ratio of Sensitive/Total [9],further results
CC1COc2c(N3CCN(C)CC3)c(F)cc3c(=O)c(C(=O)O)cn1c23 (centres unmarked) [Ofloxacin],0/10,> 16 µg/mL,> 16 µg/mL,2 to 8 µg/mL,2/5,1 to 4 µg/mL,9/10,2 µg/mL,2 µg/mL,14/20,2 µg/mL,4 µg/mL,3/20,4 µg/mL,> 16 µg/mL,0.5 to 1 µg/mL,10/10,10/10,10/10,1/10,MIC Range [4]: 1 to 8 µg/mL; MIC50 [6]: 0.5 µg/mL; MIC90 [6]: 1 µg/mL; MIC Range ([7]; 10 clinical isolates): 1 to 2 µg/mL; MIC50 ([7]; 10 clinical isolates): 1 µg/mL; MIC90 ([7]; 10 clinical isolates): 2 µg/mL; MIC Range [8]: 0.25 to 1 µg/mL; MIC50 [8]: 1 µg/mL; MIC90 [8]: 1 µg/mL; MIC50 [9]: 16 µg/mL; MIC90 [9]: > 16 µg/mL
CN(C)[C@@H]1C(O)=C(C(N)=O)C(=O)[C@@]2(O)C(O)=C3C(=O)c4c(O)cccc4[C@@](C)(O)[C@H]3[C@H](O)[C@@H]12 [Oxytetracycline],8/10,1 µg/mL,> 32 µg/mL,0.25 to 16 µg/mL,2/5,1 to 8 µg/mL,8/10,1 µg/mL,8 µg/mL,10/20,4 µg/mL,> 32 µg/mL,6/20,16 µg/mL,32 µg/mL,0.25 to 32 µg/mL,8/10,1/10,9/10,10/10,MIC50 [6]: 0.25 µg/mL; MIC90 [6]: 32 µg/mL; MIC50 ([7]; 10 clinical isolates): 32 µg/mL; MIC90 ([7]; 10 clinical isolates): > 32 µg/mL; MIC50 [8]: 0.25 µg/mL; MIC90 [8]: 1 µg/mL; MIC Range [9]: 0.125 to 0.25 µg/mL; MIC50 [9]: 0.25 µg/mL; MIC90 [9]: 0.25 µg/mL
NC[C@H]1O[C@H](O[C@H]2[C@H](O)[C@@H](O[C@H]3O[C@H](CO)[C@@H](O)[C@H](N)[C@H]3O)[C@H](N)C[C@@H]2N)[C@H](N)C[C@@H]1O [Tobramycin],5/10,0.06 µg/mL,> 32 µg/mL,–,0/5,16 to 32 µg/mL,0/10,16 µg/mL,32 µg/mL,1/20,16 µg/mL,32 µg/mL,0/20,16 µg/mL,> 32 µg/mL,0.5 to 1 µg/mL,10/10,0/10,10/10,6/10,MIC Range [4]: 4 to 32 µg/mL; MIC50 [6]: 0.5 µg/mL; MIC90 [6]: 0.5 µg/mL; MIC50 ([7]; 10 clinical isolates): 32 µg/mL; MIC90 ([7]; 10 clinical isolates): > 32 µg/mL; MIC Range [8]: 0.06 to 4 µg/mL; MIC50 [8]: 0.06 µg/mL; MIC90 [8]: 4 µg/mL; MIC50 [9]: 1 µg/mL; MIC90 [9]: > 32 µg/mL
Gentamicin,6/10,–,–,8 to 16 µg/mL,0/5,8 to 16 µg/mL,0/10,–,–,9/20,–,–,1/20,–,–,0.25 to 0.5 µg/mL,10/10,0/10,9/10,10/10,MIC 50% [1]: 0.125 µg/mL; MIC 90% [1]: >16 µg/mL; MIC 50% ([3]; 10 clinical isolates): 16 µg/mL; MIC 90% ([3]; 10 clinical isolates): 16 µg/mL; MIC 50% [4]: 8 µg/mL; MIC 90% [4]: 16 µg/mL; MIC 50% [5]: 8 µg/mL; MIC 90% [5]: >16 µg/mL; MIC 50% [6]: 0.5 µg/mL; MIC 90% [6]: 0.5 µg/mL; MIC 50% ([7]; 10 clinical isolates): 16 µg/mL; MIC 90% ([7]; 10 clinical isolates): >16 µg/mL; MIC 50% [8]: 0.125 µg/mL; MIC 90% [8]: 4 µg/mL; MIC Range [8]: 0.03 to 8 µg/mL; MIC 50% [9]: 0.5 µg/mL; MIC 90% [9]: 0.5 µg/mL; MIC Range [9]: 0.25 to 1 µg/mL
Penicillin,–,–,–,–,–,–,–,–,–,–,–,–,–,–,–,–,–,–,–,–,"MIC ([3]; serotype 3): 0.015 µg/mL; MIC ([3]; serotype 4): 0.015 µg/mL; MIC ([3]; serotype 7F): 0.015 µg/mL; MIC ([3]; serotype 8): 0.015 µg/mL; MIC ([3]; serotype 9(V)): 0.03 µg/mL; MIC ([3]; serotype 11(A)): 0.06 µg/mL; MIC ([3]; serotype 19F): 0.03 µg/mL; MIC ([3]; serotype 23(F)): 0.015 µg/mL; MIC ([7]; single isolate, serotype 23(F)): 2 µg/mL"
